Molecular target: T1, Recombinant human HSP90a (Homo sapiens, UniProt P07900)
T1 construct: host or cells: E. coli
Experiment: HSP90 radioligand filter binding test ([3H]17AAG competition)
Conditions: [3H]17AAG 0.08 μM, HSP90 1.5 μg/assay, 22° C., 30 min; read-out: IC50 (HSP90 inhibition)
From the text: Test Method for the Measurement of HSP90 Inhibitors
The binding of geldanamycin or 17-allylamino-17-demethoxygeldanamycin (17AAG) to HSP90 and competitive inhibition thereof can be utilised in order to determine the inhibitory activity of the compounds according to the invention (Carreras et al. 2003, Chiosis et al. 2002).
In the specific case, a radioligand filter binding test is used. The radioligand used here is tritium-labelled 17-allylaminogeldanamycin, [3H]17AAG. This filter binding test allows a targeted search for inhibitors which interfere with the ATP binding site.
Recombinant human HSP90a (E. coli expressed, 95% purity);
[3H]17AAG (17-allylaminogeldanamycin, [allylamino-2,3-^3H. Specific activity: 1.11×10^12 Bq/mmol (Moravek, MT-1717);
HEPES filter buffer (50 mM HEPES, pH 7.0, 5 mM MgCl2, BSA 0.01%)
Multiscreen FB (1 μm) filter plate (Millipore, MAFBNOB 50).
The 96-well microtitre filter plates are firstly irrigated and coated with 0.1% of polyethylenimine.
The test is carried out under the following conditions:
Reaction temperature 22° C.
Reaction time: 30 min., shaking at 800 rpm
50 mM HEPES HCl, pH 7.0, 5 mM MgCl2, 0.01% (w/v) of BSA
At the end of the reaction, the supernatant in the filter plate is removed by suction with the aid of a vacuum manifold (Multiscreen Separation System, Millipore), and the filter is washed twice.
The filter plates are then measured in a beta counter (Microbeta, Wallac) with scintillator (Microscint 20, Packard).
“% of control” is determined from the “counts per minutes” values, and the IC-50 value of a compound is calculated therefrom.

SMILES: CN(C)CCNS(=O)(=O)c1ccccc1-c1ccc2nc(N)nc(C(=O)N3Cc4ccccc4C3)c2c1 [Compound A3]
- IC50: 0.01 to 1 µM

SMILES: CCN(CC)C(=O)c1ccc(Cl)cc1-c1ccc2nc(N)nc(C(=O)N3Cc4ccccc4C3)c2c1 [Compound A87, 2-[2-Amino-4-(1,3-dihydroisoindole-2-carbonyl)quinazolin-6-yl]-4-chloro-N,N-diethylbenzamide]
- IC50: 0.01 to 1 µM

SMILES: Nc1nc(C(=O)N2Cc3ccccc3C2)c2cc(-c3ccccc3C(=O)NC3CC3)ccc2n1 [Compound A48, 2-[2-Amino-4-(1,3-dihydroisoindole-2-carbonyl)quinazolin-6-yl]-N-cyclopropylbenzamide]
- IC50: 0.01 to 1 µM

SMILES: CCN(CCO)S(=O)(=O)c1ccccc1-c1ccc2nc(N)nc(C(=O)N3Cc4ccccc4C3)c2c1 [Compound A25, 2-[2-Amino-4-(1,3-dihydroisoindole-2-carbonyl)quinazolin-6-yl]-N-ethyl-N-(2-hydroxyethyl)benzenesulfonamide]
- IC50: 0.01 to 1 µM

SMILES: CN(C)S(=O)(=O)c1ccccc1-c1ccc2nc(N)nc(C(=O)N3Cc4ccccc4C3)c2c1 [Compound A4]
- IC50: 0.01 to 1 µM

SMILES: CN(C(C)(C)C)S(=O)(=O)c1ccccc1-c1ccc2nc(N)nc(C(=O)N3Cc4ccccc4C3)c2c1 [Compound A59, 2-[2-Amino-4-(1,3-dihydroisoindole-2-carbonyl)quinazolin-6-yl]-N-tert-butyl-N-methylbenzenesulfonamide]
- IC50: 0.01 to 1 µM

SMILES: CC(C)(C)NS(=O)(=O)c1ccccc1-c1ccc2nc(N)nc(C(=O)N3Cc4ccccc4C3)c2c1 [Compound A1, 2-[2-Amino-4-(1,3-dihydroisoindole-2-carbonyl)quinazolin-6-yl]-N-tert-butylbenzenesulfonamide]
- IC50: 0.01 to 1 µM

SMILES: Nc1nc(C(=O)N2Cc3ccccc3C2)c2cc(-c3ccccc3S(=O)(=O)N3CCNC(=O)C3)ccc2n1 [Compound A12]
- IC50: 0.01 to 1 µM

SMILES: CNC(=O)C1CCCN1S(=O)(=O)c1ccccc1-c1ccc2nc(N)nc(C(=O)N3Cc4ccccc4C3)c2c1 (stereo not shown) [Compound A58, 1-{2-[2-amino-4-(1,3-dihydroisoindole-2-carbonyl)quinazolin-6-yl]benzenesulfonyl}pyrrolidine-2-methylamide]
- IC50: 0.01 to 1 µM

SMILES: CCNC(=O)c1cc(OC)c(OC)cc1-c1ccc2nc(N)nc(C(=O)N3Cc4ccccc4C3)c2c1 [Compound A84, 2-[2-Amino-4-(1,3-dihydroisoindole-2-carbonyl)quinazolin-6-yl]-N-ethyl-4,5-dimethoxybenzamide]
- IC50: > 10 µM

SMILES: CN(C1CC1)S(=O)(=O)c1ccccc1-c1ccc2nc(N)nc(C(=O)N3Cc4ccccc4C3)c2c1 [Compound A65, 2-[2-amino-4-(1,3-dihydroisoindole-2-carbonyl)quinazolin-6-yl]-N-cyclopropyl-N-methylbenzenesulfonamide]
- IC50: 0.01 to 1 µM

SMILES: CCN(CC)C(=O)c1ccccc1-c1ccc2nc(N)nc(C(=O)N3Cc4ccccc4C3)c2c1 [Compound A40, 2-[2-Amino-4-(1,3-dihydroisoindole-2-carbonyl)quinazolin-6-yl]-N,N-diethylbenzamide]
- IC50: 0.01 to 1 µM

SMILES: Nc1nc(C(=O)N2Cc3ccccc3C2)c2cc(-c3ccccc3C(=O)N(CCO)CCO)ccc2n1 [Compound A73]
- IC50: 0.01 to 1 µM

SMILES: CC1CCC(C)N1S(=O)(=O)c1ccccc1-c1ccc2nc(N)nc(C(=O)N3Cc4ccccc4C3)c2c1 (stereo not shown) [Compound A64, {2-amino-6-[2-(2,5-dimethylpyrrolidine-1-sulfonyl)phenyl]-quinazolin-4-yl}-(1,3-dihydroisoindol-2-yl)methanone]
- IC50: 0.01 to 1 µM

SMILES: NCCNS(=O)(=O)c1ccccc1-c1ccc2nc(N)nc(C(=O)N3Cc4ccccc4C3)c2c1 [Compound A14, 2-[2-Amino-4-(1,3-dihydroisoindole-2-carbonyl)quinazolin-6-yl]-N-(2-aminoethyl)benzenesulfonamide]
- IC50: 0.01 to 1 µM

SMILES: CCNC(=O)c1ccc(Cl)cc1-c1ccc2nc(N)nc(C(=O)N3Cc4ccccc4C3)c2c1 [Compound A86, 2-[2-Amino-4-(1,3-dihydroisoindole-2-carbonyl)quinazolin-6-yl]-4-chloro-N-ethylbenzamide]
- IC50: 0.01 to 1 µM

SMILES: CCN(C)C(=O)c1cc(F)c(F)cc1-c1ccc2nc(N)nc(C(=O)N3Cc4ccccc4C3)c2c1 [Compound A77, 2-[2-Amino-4-(1,3-dihydroisoindole-2-carbonyl)quinazolin-6-yl]-N-ethyl-4,5-difluoro-N-methylbenzamide]
- IC50: 0.01 to 1 µM

SMILES: Cc1cn(S(=O)(=O)c2ccccc2-c2ccc3nc(N)nc(C(=O)N4Cc5ccccc5C4)c3c2)cn1 [Compound A30, {2-Amino-6-[2-(4-methylimidazole-1-sulfonyl)phenyl]quinazolin-4-yl}-(1,3-dihydroisoindol-2-yl)methanone]
- IC50: 0.01 to 1 µM

SMILES: COC(=O)C1CCCN1C(=O)c1ccccc1-c1ccc2nc(N)nc(C(=O)N3Cc4ccccc4C3)c2c1 (stereo not shown) [Compound A37, Methyl 1-{2-[2-amino-4-(1,3-dihydroisoindole-2-carbonyl)quinazolin-6-yl]benzoyl}pyrrolidine-2-carboxylate]
- IC50: 0.01 to 1 µM

SMILES: CNS(=O)(=O)c1ccccc1-c1ccc2nc(N)nc(C(=O)N3Cc4ccccc4C3)c2c1 [Compound A6, 2-[2-Amino-4-(1,3-dihydroisoindole-2-carbonyl)quinazolin-6-yl]-N-methylbenzenesulfonamide]
- IC50: 0.01 to 1 µM

SMILES: Cc1nccn1S(=O)(=O)c1ccccc1-c1ccc2nc(N)nc(C(=O)N3Cc4ccccc4C3)c2c1 [Compound A28, {2-Amino-6-[2-(2-methylimidazole-1-sulfonyl)phenyl]quinazolin-4-yl}-(1,3-dihydroisoindol-2-yl)methanone]
- IC50: 0.01 to 1 µM

SMILES: Nc1nc(C(=O)N2Cc3ccccc3C2)c2cc(-c3ccccc3C(=O)N3CCC(O)CC3)ccc2n1 [Compound A23]
- IC50: 0.01 to 1 µM

SMILES: Nc1nc(C(=O)N2Cc3ccccc3C2)c2cc(-c3ccccc3S(=O)(=O)N3CC(F)(F)C3)ccc2n1 [Compound A60]
- IC50: 0.01 to 1 µM

SMILES: CC(CN(C)C)NS(=O)(=O)c1ccccc1-c1ccc2nc(N)nc(C(=O)N3Cc4ccccc4C3)c2c1 (stereo not shown) [Compound A17]
- IC50: 0.01 to 1 µM

SMILES: Nc1nc(C(=O)N2Cc3ccccc3C2)c2cc(-c3ccccc3S(=O)(=O)N3CCC(O)CC3)ccc2n1 [Compound A9]
- IC50: 0.01 to 1 µM

SMILES: CC1CCC(C)N1C(=O)c1ccccc1-c1ccc2nc(N)nc(C(=O)N3Cc4ccccc4C3)c2c1 (stereo not shown) [Compound A57]
- IC50: 0.01 to 1 µM

SMILES: Nc1nc(C(=O)N2Cc3ccccc3C2)c2cc(-c3ccccc3S(=O)(=O)NC3CNC3)ccc2n1 [Compound A26, 2-[2-amino-4-(1,3-dihydroisoindole-2-carbonyl)quinazolin-6-yl]-N-azetidin-3-ylbenzenesulfonamide]
- IC50: 0.01 to 1 µM

SMILES: CN(Cc1cncn1C)S(=O)(=O)c1ccccc1-c1ccc2nc(N)nc(C(=O)N3Cc4ccccc4C3)c2c1 [Compound A18]
- IC50: 0.01 to 1 µM

SMILES: Nc1nc(C(=O)N2Cc3ccccc3C2)c2cc(-c3ccccc3S(=O)(=O)n3ccnc3)ccc2n1 [Compound A27, {2-Amino-6-[2-(imidazole-1-sulfonyl)phenyl]quinazolin-4-yl}-(1,3-dihydroisoindol-2-yl)methanone]
- IC50: 1 to 10 µM

SMILES: Nc1nc(C(=O)N2Cc3ccccc3C2)c2cc(-c3cc(F)c(F)cc3C(=O)N3CCCC3)ccc2n1 [Compound A78, {2-Amino-6-[4,5-difluoro-2-(pyrrolidine-1-carbonyl)phenyl]quinazolin-4-yl}-(1,3-dihydroisoindol-2-yl)methanone]
- IC50: 0.01 to 1 µM

SMILES: CN(CCO)S(=O)(=O)c1ccccc1-c1ccc2nc(N)nc(C(=O)N3Cc4ccccc4C3)c2c1 [Compound A8]
- IC50: 0.01 to 1 µM

Source: patent US8546565B2, “Quinazolinamide derivatives” (Merck Patent Gesellschaft, priority 2008, dated 2013)
